Consider six compounds from ChEMBL document CHEMBL3600367, “Anti-plasmodial activity of bradykinin and analogs” (Bioorg Med Chem Lett, 2015).

Activity calls are given as the source filed them. No cut-off for these calls is given here. Residues, ends and D or L forms follow the SMILES beside them.

The subject of one series is Plasmodium gallinaceum. The series can be described thus: Antiplasmodial activity against mature Plasmodium gallinaceum sporozoites isolated from Aedes aegypti RED assessed as increase in membrane permeability at 60 umol/L after 1 hr by propidium iodide staining-based inverted fluorescence microscopic analysis. It counts as functional.
The subject of the next series is Plasmodium falciparum. The series can be described thus: Antiplasmodial activity against Plasmodium falciparum W2 schizonts infected in human erythrocytes assessed as appearance of intracellular ring forms at 10^-8 mol/L after 24 hrs by Diff quick staining-based light microscopic analysis. It counts as functional, organism-based.
Series [1] can be described thus: Metabolic stability in plasma (unknown origin). It counts as ADME, cell-free.

For the compound `CC[C@H](C)[C@H](NC(=O)[C@H](Cc1ccc(O)cc1)NC(=O)[C@@H](NC(=O)[C@H](CCCNC(=N)N)NC(=O)[C@@H](N)CC(=O)O)C(C)C)C(=O)N[C@@H](Cc1cnc[nH]1)C(=O)N1CCC[C@H]1C(=O)N[C@@H](Cc1ccccc1)C(=O)O` [ANGIOTENSIN II], the Activity in the series with Plasmodium gallinaceum is 88%.

Regarding `N=C(N)NCCC[C@H](NC(=O)[C@H](Cc1ccccc1)NC(=O)[C@@H]1CCCN1C(=O)[C@H](CO)NC(=O)[C@H](Cc1ccccc1)NC(=O)CNC(=O)[C@@H]1CCCN1C(=O)[C@@H]1CCCN1C(=O)[C@@H](N)CCCNC(=N)N)C(=O)O` [BRADYKININ] (H-RPPGFSPFR-OH), the outcome with Plasmodium falciparum was inactive. For the same compound, the Activity in the series with Plasmodium gallinaceum amounted to 98%.

`CC(C)C[C@@H](N)C(=O)N1CCC[C@@H]1C(=O)N[C@H](CO)C(=O)N[C@H](CCC(=O)O)C(=O)N[C@H](Cc1ccccc1)C(=O)N[C@H](CCCNC(=N)N)C(=O)N[C@@H](C(=O)N1CCC[C@@H]1C(=O)N[C@H](CC(C)C)C(=O)NCC(=O)N1CCC[C@@H]1C(=O)N[C@H](CCCNC(=N)N)C(N)=O)C(C)C`: the result with Plasmodium falciparum was inactive. In the series with Plasmodium gallinaceum, the outcome was Active. In addition, the Stability result in series [1] is recorded as “Stable”.

Take `CC(C)C[C@@H](NC(=O)[C@H]1CCCN1C(=O)[C@H](NC(=O)[C@@H](CCCNC(=N)N)NC(=O)[C@@H](CO)NC(=O)[C@@H](Cc1ccccc1)NC(=O)[C@@H](CO)NC(=O)[C@H]1CCCN1C(=O)[C@@H](CC(C)C)NC(=O)[C@H](N)CCCNC(=N)N)C(C)C)C(=O)NCC(=O)N1CCC[C@@H]1C(=O)N1CCC[C@@H]1C(=O)N[C@H](CCCNC(=N)N)C(N)=O`: the result in the series with Plasmodium falciparum was inactive. For the same compound, in series [1], the Stability result was “Stable”.

In the case of `CC(C)C[C@H](NC(=O)[C@@H]1CCCN1C(=O)[C@H](CO)NC(=O)[C@H](CCC(=O)O)NC(=O)[C@H](Cc1ccccc1)NC(=O)[C@H](CCCNC(=N)N)NC(=O)[C@@H](NC(=O)[C@@H]1CCCN1C(=O)[C@H](CC(C)C)NC(=O)CNC(=O)[C@@H]1CCCN1C(=O)[C@@H](N)CCCNC(=N)N)C(C)C)C(N)=O` (H-RPGLPVRFESPL-NH2), the result in the series with Plasmodium falciparum and in the series on Plasmodium gallinaceum was inactive.

Consider `CC(C)C[C@H](NC(=O)[C@@H]1CCCN1C(=O)[C@H](CO)NC(=O)[C@H](Cc1ccccc1)NC(=O)[C@H](CO)NC(=O)[C@H](CCCNC(=N)N)NC(=O)[C@@H](NC(=O)[C@@H]1CCCN1C(=O)[C@H](CC(C)C)NC(=O)CNC(=O)[C@@H]1CCCN1C(=O)[C@@H]1CCCN1C(=O)[C@@H](N)CCCNC(=N)N)C(C)C)C(=O)N[C@@H](CCCNC(=N)N)C(N)=O` (H-RPPGLPVRSFSPLR-NH2), for which, in the series with Plasmodium falciparum, the result was inactive. The outcome with Plasmodium gallinaceum was Active.
